Results from patent US12479877B2, “Methods for purifying steviol glycosides and uses of the same” (PureCircle Sdn. Bhd., priority 2010, dated 2025).
“And” between values parts separate entries of the source, which are not always exact repeats. Equal values may be shown once.

Experiments:
panelists = test: Sensory properties in acidified water (pH 3.0) at 500 mg/L, 20 panelists; type: in vivo, human; conditions: 500 ppm, acidified water pH 3.0, 20 panelists
Procedure: The sensory properties of Reb X were evaluated in acidified water (pH 3.0 by phosphoric acid) at 500 mg/L concentration by 20 panelists.

one experienced panelist = test: Taste evaluation of Reb X against Reb A and Reb D, multi-sip and swallow taste method; type: in vivo, human
Procedure: The taste properties of a sample of Reb X were studied against Rebaudioside A (Reb A) and Rebaudioside D (Rb D) samples. Rb A was obtained from Cargill (lot #1040) and Reb-D was obtained from PureCircle (lot #11/3/08).
The samples were prepared at 500 ppm for sweetness evaluation by adding moisture compensated mass into a 100 mL sample of carbon-treated water and citric buffer solutions.
(§1) Citric buffer was prepared by mixing 1.171 g/L citric acid, 0.275 g/L sodium citrate and 0.185 g/L sodium benzoate with carbon-treated water, with a final pH of 3.22. The mixtures were moderately stirred at room temperature. The Reb X sample was then evaluated against the two control Reb A and Reb D samples in water and citric buffer at room temperature (RT) and at 4° C. in an ice bath by one experienced panelist for any tasting quality determinations using the controlled, multi-sip and swallow taste method shown below:
1. Take first sip (˜1.8 mL) of control and swallow. Wait for 15-25 sec, then take second sip of control and wait for 15-25 sec.
2. Take first sip of the experimental sample, wait for 15-25 sec, then take second sip. Compare to second sip of control.
3. Repeat steps #1 and #2 for the third and fourth sips of the control and experimental samples to confirm the initial finding.
The taste evaluation results of the Reb X samples against the control Reb A and Reb D samples at 500 ppm in citric buffer (CB) at 4° C. and RT are described in Table 4.

[1] = Solubility studies in carbon-treated water and citrate buffer; type: physicochemical
Procedure: as §1
The samples used to evaluate the taste properties in Example 2 were also used for solubility studies.

one experienced taster = test: Isosweetness determination of Reb X in citric buffer against sucrose controls; type: in vivo, human; conditions: for Estimated % Sweetness Equivalence in Citric Buffer at 4° C.: citric buffer pH 3.1, 4° C.; for Estimated % Sweetness Equivalence in Citric Buffer at RT: citric buffer pH 3.1, RT
Procedure: The isosweetness levels of Reb X in a citric buffer system at room temperature and 4° C. were evaluated. A 600 ppm stock solution of Reb X was prepared by adding a mass of 0.15 g into a 250 mL sample of citric buffer (CB) solution. The mixture was moderately stirred at warmer temperature (up to ca. 52° C.) on a heated stirrer for about 15-20 minutes and then cooled. The citric buffer was prepared by adding 1.6 g citric acid, 0.6 g potassium citrate and 0.253 g sodium benzoate in 1 L of carbon-treated water. The pH of the mixture was 3.1. Seven diluted Reb X solutions at […], 25, 50, 100, 200, 300, 400 and 500 ppm were prepared by adding a 2.08, 4.17, 8.33, 16.67, 25.00, 33.33 and 41.67 mL Reb X stock solution, respectively, into each 50 mL solution of CB. The controls of 0.75%, 2%, 4%, 6%, 8%, 10% and 15% sucrose equivalence (SE) were also prepared by adding sugar (w/v) into the CB. The mixtures were moderately stirred and then ready for the isosweetness determination test. The Reb X samples were then evaluated against the control sugar samples in citric buffer at room temperature (RT) and 4° C. (in an ice bath) by one experienced taster for an isosweetness determination using the controlled, multi-sip and swallow taste method.

[2] = Beverage formulations: taste properties compared with Reb A; type: in vivo, human
[3] = test system: semi-trained panel members; test: Sensory comparison of Reb X and Reb A, iso-sweet samples at 8% sucrose equivalent; type: in vivo, human
Procedure: To compare the sensory attributes between Reb X and Reb A, iso-sweet samples having 8% sucrose equivalent sweetness were made with filtered water as shown in Table 8. An 8% sugar solution in water at room temperature was used as a control. An 8% sugar solution in the acidified solution was used as the control. The samples prepared with filtered water were evaluated by 34 semi-trained panel members at room temperature. The samples prepared with acidified water were evaluated by 23 semi-trained panel members at room temperature. Samples were given to the panel members sequentially and coded with triple digit numbers. The order of sample presentation was randomized to avoid order of presentation bias. Water and unsalted crackers were provided in order to cleanse the palate. The panel members were asked to rate different attributes including sweetness onset, total sweetness, rounded sweetness, bitterness, acidity, leafy note, licorice, astringency, mouthfeel, mouth coating, sweet lingering, and bitter lingering. Samples were rated on a scale of zero (0) to ten (10), with zero indicating immediate onset, no intensity, watery/low viscosity, or very sharp peak, and ten indicating very delayed onset, high intensity, thick/high viscosity, or very round peak. One-way single factor ANOVA was used to analyze sensory results, where α=0.05.

[4] = acidified water (250 ppm citric acid, pH 3.2), 23 panel members, FIG. 12

C=C1C[C@@]23CCC4[C@](C)(C(=O)OC5OC(CO)C(O)C(OC6OC(CO)C(O)C(O)C6O)C5OC5OC(CO)C(O)C(O)C5O)CCC[C@@]4(C)[C@@H]2CCC1(OC1OC(CO)C(O)C(OC2OC(CO)C(O)C(O)C2O)C1OC1OC(CO)C(O)C(O)C1O)C3 (stereo partly drawn) [Reb X, (13-[2-O-β-D-glucopyranosyl-3-O-β-D-glucopyranosyl-β-D-glucopyranosyl)oxy] ent kaur-16-en-19-oic acid-[2-O-β-D-glucopyranosyl-3-O-β-D-glycopyranosyl) ester]
Astringent taste: Number of panelists detected the attribute (panelists): 0 | Bitter taste: Number of panelists detected the attribute (panelists): 0 | Licorice taste: Number of panelists detected the attribute (panelists): 0 | Overall evaluation: Satisfactory (number of panelists of 20) (panelists): (20 of 20) | Quality of sweet taste: Clean (number of panelists of 20) (panelists): Clean (20 | Sweet Aftertaste: Number of panelists detected the attribute (panelists): 0 | Taste profile compared to already known steviol glycosides (panelists): superior taste profile | Taste quality at room temperature versus 4° C. (one experienced panelist; 500 ppm in citrate buffer): similar | Taste quality compared with Reb A and Reb D (one experienced panelist; 500 ppm in citrate buffer): much better than Reb A or Reb D | Sweet temporal profile and sweetness linger (one experienced panelist; 500 ppm in citrate buffer, compared with Reb A): fatty-like or broader sweet temporal profile and less sweetness linger than that of Reb A | Taste Properties (one experienced panelist; 500 ppm in citric buffer (pH 3.22), room temperature): Clean sweet taste. Broad and full sweetness profile. Moderate | Astringency, sweetness intense (depth) and bitterness notes (one experienced panelist; 500 ppm, citrate buffer system, compared with Reb A): did not have the astringency or sweetness intense (depth) and bitterness notes compared to that of the Reb A | Estimated time to solubilize ([1]; 0.01% in carbon-treated water): 15 min | Estimated time to solubilize ([1]; 0.01% in citrate buffer): 25 min | Estimated time to solubilize ([1]; 0.02% in carbon-treated water): 25 min | Estimated time to solubilize ([1]; 0.02% in citrate buffer): 25 min | Estimated time to solubilize ([1]; 0.04% in carbon-treated water): 33 min | Estimated time to solubilize ([1]; 0.04% in citrate buffer): 35 min | Estimated time to solubilize ([1]; 0.05% in carbon-treated water): 39 min | Estimated time to solubilize ([1]; 0.05% in citrate buffer): 42 min | Estimated time to solubilize ([1]; 0.075% in carbon-treated water): 55 min | Estimated time to solubilize ([1]; 0.075% in citrate buffer): 55 min | Estimated time to solubilize ([1]; 0.10% in carbon-treated water): 106 min | Estimated time to solubilize ([1]; 0.10% in citrate buffer): 106 min | Estimated time to solubilize ([1]; 0.15% in carbon-treated water): Insoluble after 20 hours | Estimated time to solubilize ([1]; 0.15% in citrate buffer): Insoluble after 20 hours | Initial solubility test (comparative) ([1]; 500 ppm concentrations in citrate buffer): significantly greater solubility than that of Reb D and significantly less solubility than Reb A | Estimated % Sweetness Equivalence in Citric Buffer at 4° C. (one experienced taster; Reb X 12.5 ppm): 0.75% | Estimated % Sweetness Equivalence in Citric Buffer at RT (one experienced taster; Reb X 12.5 ppm): 0.5% | Estimated % Sweetness Equivalence in Citric Buffer at 4° C. (one experienced taster; Reb X 25 ppm): 1.5% | Estimated % Sweetness Equivalence in Citric Buffer at RT (one experienced taster; Reb X 25 ppm): 1.0-1.5% | Estimated % Sweetness Equivalence in Citric Buffer at 4° C. (one experienced taster; Reb X 50 ppm): 3.0-3.5% | Estimated % Sweetness Equivalence in Citric Buffer at RT (one experienced taster; Reb X 50 ppm): 3.25-3.75% | Estimated % Sweetness Equivalence in Citric Buffer at 4° C. (one experienced taster; Reb X 100 ppm): 5.5% | Estimated % Sweetness Equivalence in Citric Buffer at RT (one experienced taster; Reb X 100 ppm): 5.0% | Estimated % Sweetness Equivalence in Citric Buffer at 4° C. (one experienced taster; Reb X 200 ppm): 8.0% | Estimated % Sweetness Equivalence in Citric Buffer at RT (one experienced taster; Reb X 200 ppm): 8.0% | Estimated % Sweetness Equivalence in Citric Buffer at 4° C. (one experienced taster; Reb X 300 ppm): 11.0-12.0% | Estimated % Sweetness Equivalence in Citric Buffer at RT (one experienced taster; Reb X 300 ppm): 12.0% | Estimated % Sweetness Equivalence in Citric Buffer at 4° C. (one experienced taster; Reb X 400 ppm): 14.0-14.5% | Estimated % Sweetness Equivalence in Citric Buffer at RT (one experienced taster; Reb X 400 ppm): 14.0-14.5% | Estimated % Sweetness Equivalence in Citric Buffer at 4° C. (one experienced taster; Reb X 500 ppm): 15.5-16.0% | Estimated % Sweetness Equivalence in Citric Buffer at RT (one experienced taster; Reb X 500 ppm): 15.5-16.0% | Estimated % Sweetness Equivalence in Citric Buffer at 4° C. (one experienced taster; Reb X 600 ppm): 16.5-17.0% | Estimated % Sweetness Equivalence in Citric Buffer at RT (one experienced taster; Reb X 600 ppm): 16.5-17.0% | Sweetness intensity difference between RT and 4° C. (one experienced taster; Reb X concentration range, direct comparison with control sucrose at similar temperatures): no significant sweetness intensity difference | Sweetness tasting quality (one experienced taster; all concentrations (12.5-600 ppm) in citric buffer): pleasant sweetness tasting quality with a slight delay of sweetness onset and no bitterness | Off-flavors (one experienced taster; any Reb X concentrations in CB at 4° C., except at least ca. 300 ppm): No off-flavors | Sweetness lingering (one experienced taster; at least ca. 300 ppm Reb X in CB at 4° C.): longer sweetness lingering | Taste properties compared to Reb A drink ([2]; flavored zero caloric black tea drink, 250 ppm Reb X vs 250 ppm Reb A): much cleaner in finish with less sweetness linger and a more rounded overall sweetness profile | Reb X level closest in sweetness level to a 11.5 Brix high fructose corn syrup sweetened orange flavored sparkling beverage ([2]; zero caloric orange-flavored sparkling beverage base): 500 ppm and 550 ppm | Taste compared to Reb A-containing formulations ([2]; zero caloric orange-flavored sparkling beverage, Reb X 400 to 750 ppm in 50 ppm increments): significantly better than comparable Reb A-containing formulations | Taste properties compared to Reb A drink ([2]; zero calorie enhanced water drink, 200 ppm Reb X vs 200 ppm Reb A): cleaner in finish and had reduced sweetness linger and a more rounded overall sweetness taste quality | Perceived sweetness compared to Reb A [3, 4]: higher sweetness of Reb X over Reb A is significant | Sweetness onset, non-sweet taste and bitterness lingering compared to Reb A [3, 4]: faster sweetness onset, reduced non-sweet taste (bitterness, sour, astringency) and bitterness lingering | Bitterness, astringency and bitter lingering compared to Reb A ([3]; filtered water, room temperature, 34 panel members, FIG. 11): reduced perception of bitterness, astringency and bitter lingering compared to Reb A
